According to patent US9784725B2, “Light refraction imaging to measure liquid volume” (University of Pittsburgh—Of the Commonwealth System of …, priority 2016, dated 2017):

Assays:
[1] = tested on: differentiated CF HBE cells; experiment: ASL volume by refracted light microscopy after apical fluid bolus, isotonic versus hypertonic; type: cell-based, human; details: 5 μL PBS with 300 mM mannitol applied apically; ASL volume measured at 0, 4, 8, 24, 48 and 72 hours; FIG. 7
Protocol: (§1) HBE cells were cultured from excess pathological tissue following lung transplantation and organ donation under protocols approved by the Universities of Pittsburgh and North Carolina Investigational Review Boards. Cells were studied following 3-6 weeks of culture and considered differentiated when a mucociliary phenotype was apparent on phase contrast microscopy. HBE cultures grown in a twenty four well plate on 0.33 cm^2 filter inserts (See, e.g., FIG. 1B) were visualized with a standard cell culture microscope (Olympus CK40) with a 5× plain light objective (Zeiss) and imaged using a Scion CFW 1610M camera with μManager (30). […] In order to standardize the quantification of the meniscus image, a custom script using the open-source ImageJ software was developed. […] The length of the meniscus can be determined as the length from where the grey value is greater than min to the end of the array and the area under the curve (AUC) is measured using the numerically integrated rectangular rule. […] Therefore, the correlation between the derived parameters of the intensity profile and the ASL volume were determined, rather than mathematically calculating the volume based on the AUC of the intensity profile. […] Thus, the ASL volume can be measured from the image of the meniscus by integrating the […] value with the experimentally derived calibration curve shown in FIG. 4B. […]

[2] = tested on: differentiated HBE cultures; experiment: ASL volume by refracted light microscopy of the meniscus, bumetanide treatment; type: cell-based, human; details: 100 μM bumetanide for three days prior to measurement; mean ±SEM; control filters 10.6±1.0 μL; p<0.001
Protocol: as §1

Structure (SMILES)	ASL volume expansion compared to isotonic fluid [1]	ASL volume [2] [µL]
OC[C@@H](O)[C@@H](O)[C@H](O)[C@H](O)CO [mannitol]	more pronounced and prolonged ASL volume expansion	–
CCCCNc1cc(C(=O)O)cc(S(N)(=O)=O)c1Oc1ccccc1 [bumetanide]	–	1.1 ± 0.1
